According to patent US11472826B2, “Acyclic antivirals” (priority 2016, dated 2022):

test system: HBV; assay: microbe, parasite or virus in culture; assay type: cell-based; settings: HepG2.117 cells, 72 hours, HBV viral copy numbers in supernatant; read-out: EC50

`Nc1ncnc2c(C[C@H](OCP(=O)(O)O)C(F)F)cnn12` [Compound 65, (S) (((3-(4-aminoprazolo[1,5-a][1,3,5]triazin-8-yl)-1,1-difluoropropan-2-yl)oxy)methyl)phosphonic Acid] was tested. Which EC50 did it give?
The EC50 was 1000 to 10000 nM.

same assay, conditions: Hepatitis B virus, HepG2.117, 72 h

`CC(C)OC(=O)[C@H](C)NP(=O)(CO[C@H](C)Cc1cnc2c(N)ncnn12)Oc1ccccc1` (stereo partly drawn) [Compound 53] was tested. Which EC50 did it give?
Its EC50 is < 1000 nM.

For `CC(C)OC(=O)[C@H](C)NP(=O)(CO[C@H](CF)Cc1cnn2c(N)ncnc12)Oc1ccccc1` (stereo partly drawn) [Compound 63], which EC50 is on record?
Its EC50 is < 1000 nM.

`CC(C)OC(=O)[C@H](C)NP(=O)(COC(C)Cc1cnc2c(=O)[nH]c(N)nn12)Oc1ccccc1` (stereo partly drawn) [Compound 61] was tested. Which EC50 did it give?
Its EC50 is < 1000 nM.

How did the EC50 turn out when `CC(C)OC(=O)[C@H](C)NP(=O)(CO[C@H](C)Cc1cnn2c(N)ncnc12)Oc1ccccc1` (stereo partly drawn) [Compound 52] was run?
The EC50 was < 1000 nM.

How did the EC50 turn out when `CC(C)OC(=O)[C@H](C)NP(=O)(CO[C@@H](CF)Cc1cnn2c(N)ncnc12)Oc1ccccc1` (stereo partly drawn) [Compound 62] was run?
Its EC50 is < 1000 nM.

same assay, conditions: Hepatitis B virus; HepG2.117 cells, 72 hours, HBV viral copy numbers in supernatant; read-out: EC50

For `CC(C)OC(=O)OCOP(=O)(COC(C)Cc1ccc2c(=O)[nH]c(N)nn12)OCOC(=O)OC(C)C` (stereo not drawn) [Compound 51], which EC50 is on record?
The EC50 was < 1000 nM.

For `Nc1ncnc2c(CC3(OCP(=O)(O)O)CC3)cnn12` [Compound 64, ((1-((4-aminopyrazolo[1,5-a][1,3,5]triazin-8-yl)methyl)cyclopropoxy)methyl) phosphonic Acid], which EC50 is on record?
Its EC50 is 10000 to 100000 nM.

How did the EC50 turn out when `CC(Cc1cnc2c(=O)[nH]c(N)nn12)OCP(=O)(O)O` (stereo not drawn) [Compound 48, (((1-(2-amino-4-oxo-3,4-dihydroimidazo[2,1-f][1,2,4]triazin-7-yl)propan-2-yl)oxy)methyl)phosphonic Acid] was run?
The EC50 was < 1000 nM.

`CC(C)OC(=O)OCOP(=O)(COCCc1ccc2c(N)ncnn12)OCOC(=O)OC(C)C` [Compound 15] was tested. Which EC50 did it give?
The EC50 was 1000 to 10000 nM.

`Nc1ncnn2c(C[C@@H](CF)OCP(=O)(O)O)cnc12` [Compound 67, (S)-(((1-(4-aminoimidazo[2,1-f][1,2,4]triazin-7-yl)-3-fluoropropan-2-yl)oxy)methyl) phosphonic Acid] was tested. Which EC50 did it give?
Its EC50 is 10000 to 100000 nM.

`CC(C)OC(=O)OCOP(=O)(COC(C)Cc1ccc2c(N)nc(N)nn12)OCOC(=O)OC(C)C` (stereo not drawn) [Compound 18] was tested. Which EC50 did it give?
The EC50 was 1000 to 10000 nM.

For `Nc1ncnc2c(C[C@@H](OCP(=O)(O)O)C(F)F)cnn12` [Compound 66, (R)-(((3-(4-aminopyrazolo[1,5-a][1,3,5]triazin-8-yl)-1,1-difluoropropan-2-yl)oxy)methyl)phosphonic Acid], which EC50 is on record?
The EC50 was 1000 to 10000 nM.

How did the EC50 turn out when `CC(C)OC(=O)OCOP(=O)(COC(CF)Cc1cnn2c(N)ncnc12)OCOC(=O)OC(C)C` (stereo not drawn) [Compound 16] was run?
The EC50 was < 1000 nM.

For `Nc1ncnn2c(C[C@H](CF)OCP(=O)(O)O)cnc12` [Compound 68, (R)-(((1-(4-aminoimidazo[2,1-f][1,2,4]triazin-7-yl)-3-fluoropropan-2-yl)oxy)methyl)phosphonic Acid], which EC50 is on record?
The EC50 was < 1000 nM.
